System: MV-4-11 cells
Experiment: Gene expression microarray analysis (Affymetrix PrimeView) and GSEA
Assay type: cell-based, human
Design: RFU PODN (11730768_x_at) / Fold change /veh PODN (11730768_x_at) / RFU LINC00158 (11744669_a_at) / Fold change /veh LINC00158 (11744669_a_at) / RFU DUSP10 (11751237_a_at) / Fold change /veh DUSP10 (11751237_a_at) / RFU ID3 (11757404_x_at) / Fold change /veh ID3 (11757404_x_at) / RFU PLEKHG5 (11737974_s_at) / Fold change /veh PLEKHG5 (11737974_s_at) / RFU LRRC4B (11730491_at) / Fold change /veh LRRC4B (11730491_at) / RFU GIMAP4 (11747438_a_at) / Fold change /veh GIMAP4 (11747438_a_at) / RFU KRT8 (11758183_x_at) / Fold change /veh KRT8 (11758183_x_at) / RFU CNN1 (11734310_a_at) / Fold change /veh CNN1 (11734310_a_at) / RFU VPS37D (11726825_at) / Fold change /veh VPS37D (11726825_at) / RFU C10orf10 (11716522_x_at) / Fold change /veh C10orf10 (11716522_x_at) / RFU KIR2DL2 /// KIR2DL4 /// KIR2DL5A /// KIR2DL5B /// KIR2DS1 /// KIR2DS2 /// KIR2DS3 /// KIR2DS4 /// KIR3DL3 /// KIR3DL3 /// KIR3DS1 (11738374_at) / Fold change /veh KIR2DL2 /// KIR2DL4 /// KIR2DL5A /// KIR2DL5B /// KIR2DS1 /// KIR2DS2 /// KIR2DS3 /// KIR2DS4 /// KIR3DL3 /// KIR3DL3 /// KIR3DS1 (11738374_at) / RFU C1QL1 (11718748_at) / Fold change /veh C1QL1 (11718748_at) / RFU TMPRSS4 (11747572_a_at) / Fold change /veh TMPRSS4 (11747572_a_at) / RFU HAMP (11756126_x_at) / Fold change /veh HAMP (11756126_x_at) / RFU RNFT2 (11725882_a_at) / Fold change /veh RNFT2 (11725882_a_at) / RFU NR4A2 (11747474_a_at) / Fold change /veh NR4A2 (11747474_a_at) / RFU ABCC12 (11746883_a_at) / Fold change /veh ABCC12 (11746883_a_at) / RFU TMEM136 (11760407_x_at) / Fold change /veh TMEM136 (11760407_x_at) / RFU CLDN22 /// WWC2 (11732394_at) / Fold change /veh CLDN22 /// WWC2 (11732394_at) / RFU HLA-DPB1 (11760878_x_at) / Fold change /veh HLA-DPB1 (11760878_x_at) / RFU SPINT1 (11716480_a_at) / Fold change /veh SPINT1 (11716480_a_at) / RFU GAP43 (11754022_s_at) / Fold change /veh GAP43 (11754022_s_at) / RFU A4GNT (11735810_at) / Fold change /veh A4GNT (11735810_at) / RFU PRB3 (11715151_x_at) / Fold change /veh PRB3 (11715151_x_at) / RFU TUBB4B (11761932_at) / Fold change /veh TUBB4B (11761932_at) / RFU CAPN14 (11732068_a_at) / Fold change /veh CAPN14 (11732068_a_at) / RFU TMCC2 (11721928_a_at) / Fold change /veh TMCC2 (11721928_a_at) / RFU IRGQ (11745062_a_at) / Fold change /veh IRGQ (11745062_a_at) / RFU FAM174B (11720279_a_at) / Fold change /veh FAM174B (11720279_a_at) / RFU TMPRSS4 (11748680_a_at) / Fold change /veh TMPRSS4 (11748680_a_at) / RFU FAM212B (11763350_a_at) / Fold change /veh FAM212B (11763350_a_at) / RFU PLEKHG5 (11743358_a_at) / Fold change /veh PLEKHG5 (11743358_a_at) / RFU ZSCAN30 (11745921_a_at) / Fold change /veh ZSCAN30 (11745921_a_at) / RFU CMKLR1 (11741424_a_at) / Fold change /veh CMKLR1 (11741424_a_at) / RFU LOC101060620 /// MAPK8IP1 (11723275_at) / Fold change /veh LOC101060620 /// MAPK8IP1 (11723275_at) / RFU SPTSSB (11747773_x_at) / Fold change /veh SPTSSB (11747773_x_at) / RFU PRSS12 (11739890_at) / Fold change /veh PRSS12 (11739890_at) / RFU BIN1 (11741810_x_at) / Fold change /veh BIN1 (11741810_x_at) / RFU WNT11 (11732464_a_at) / Fold change /veh WNT11 (11732464_a_at) / RFU C10orf10 (11716521_a_at) / Fold change /veh C10orf10 (11716521_a_at) / RFU C5orf56 (11738089_at) / Fold change /veh C5orf56 (11738089_at) / RFU CYB561 (11721691_x_at) / Fold change /veh CYB561 (11721691_x_at) / RFU ANKRD19P (11752326_a_at) / Fold change /veh ANKRD19P (11752326_a_at) / RFU OR2T12 /// OR2T33 /// OR2T8 (11738714_s_at) / Fold change /veh OR2T12 /// OR2T33 /// OR2T8 (11738714_s_at) / RFU VCAN (11748164_a_at) / Fold change /veh VCAN (11748164_a_at) / RFU JSRP1 (11732532_at) / Fold change /veh JSRP1 (11732532_at) / RFU KRTAP10-11 (11738290_x_at) / Fold change /veh KRTAP10-11 (11738290_x_at) / RFU MYO3A (11730013_a_at) / Fold change /veh MYO3A (11730013_a_at) / RFU EBF3 (11725865_a_at) / Fold change /veh EBF3 (11725865_a_at) / RFU CAMK2N1 (11719241_x_at) / Fold change /veh CAMK2N1 (11719241_x_at) / RFU C5orf56 (11738088_a_at) / Fold change /veh C5orf56 (11738088_a_at) / RFU OLFML3 (11715873_a_at) / Fold change /veh OLFML3 (11715873_a_at) / RFU LOC100653217 /// NTM (11731650_a_at) / Fold change /veh LOC100653217 /// NTM (11731650_a_at) / RFU MAPK11 (11762145_a_at) / Fold change /veh MAPK11 (11762145_a_at) / RFU FIZ1 (11724087_x_at) / Fold change /veh FIZ1 (11724087_x_at) / RFU OASL (11726364_x_at) / Fold change /veh OASL (11726364_x_at) / RFU SOX15 (11748057_x_at) / Fold change /veh SOX15 (11748057_x_at) / RFU CD79A (11719716_a_at) / Fold change /veh CD79A (11719716_a_at) / RFU HIST1H1D (11736915_at) / Fold change /veh HIST1H1D (11736915_at) / RFU CASKIN2 (11723855_a_at) / Fold change /veh CASKIN2 (11723855_a_at) / RFU LOC730098 (11760151_x_at) / Fold change /veh LOC730098 (11760151_x_at) / RFU OR4N2 (11742367_at) / Fold change /veh OR4N2 (11742367_at) / RFU PRRT2 (11749266_a_at) / Fold change /veh PRRT2 (11749266_a_at) / RFU SNX32 (11753110_a_at) / Fold change /veh SNX32 (11753110_a_at) / RFU CDHR5 (11726645_a_at) / Fold change /veh CDHR5 (11726645_a_at) / RFU RCAN1 (11760418_a_at) / Fold change /veh RCAN1 (11760418_a_at) / RFU FAM167A (11723789_a_at) / Fold change /veh FAM167A (11723789_a_at) / RFU FAM26E (11764081_at) / Fold change /veh FAM26E (11764081_at) / RFU ISYNA1 (11749810_s_at) / Fold change /veh ISYNA1 (11749810_s_at) / RFU ACY1 (11761880_at) / Fold change /veh ACY1 (11761880_at) / RFU 11764098_at / Fold change /veh 11764098_at / RFU SAMD14 (11745864_x_at) / Fold change /veh SAMD14 (11745864_x_at) / RFU NPB (11741838_a_at) / Fold change /veh NPB (11741838_a_at) / RFU TMPRSS6 (11731388_a_at) / Fold change /veh TMPRSS6 (11731388_a_at) / RFU KRTAP10-2 (11738614_at) / Fold change /veh KRTAP10-2 (11738614_at) / RFU ARHGAP8 /// PRR5-ARHGAP8 (11727945_x_at) / Fold change /veh ARHGAP8 /// PRR5-ARHGAP8 (11727945_x_at) / RFU KRTAP5-7 /// NADSYN1 (11734609_at) / Fold change /veh KRTAP5-7 /// NADSYN1 (11734609_at) / RFU RASL12 (11751679_a_at) / Fold change /veh RASL12 (11751679_a_at) / RFU CDKN2B (11736163_a_at) / Fold change /veh CDKN2B (11736163_a_at) / RFU PRF1 (11729649_at) / Fold change /veh PRF1 (11729649_at) / RFU, ZNF638 /// ZNF638-IT1 / Fold change vs veh, ZNF638 /// ZNF638-IT1 / RFU, PANK3 / Fold change vs veh, PANK3 / RFU, SH3YL1 / Fold change vs veh, SH3YL1 / RFU, ZEB2 / Fold change vs veh, ZEB2 / RFU, NRIP1 / Fold change vs veh, NRIP1 / RFU, PTTG1IP / Fold change vs veh, PTTG1IP / RFU, CAPN2 / Fold change vs veh, CAPN2 / RFU, MED14 / Fold change vs veh, MED14 / RFU, SNORA58 / Fold change vs veh, SNORA58 / RFU, C1orf63 / Fold change vs veh, C1orf63 / RFU, LRRFIP1 / Fold change vs veh, LRRFIP1 / RFU, NDUFAF7 / Fold change vs veh, NDUFAF7 / RFU, SLC12A2 / Fold change vs veh, SLC12A2 / RFU, IBTK / Fold change vs veh, IBTK / RFU, ESF1 / Fold change vs veh, ESF1 / Fold change vs veh, TMEM50B / RFU, TAOK1 / Fold change vs veh, TAOK1 / RFU, ACBD3 / Fold change vs veh, ACBD3 / RFU, TMA16 / Fold change vs veh, TMA16 / RFU, RWDD3 / Fold change vs veh, RWDD3 / RFU, BCAT1 / Fold change vs veh, BCAT1 / RFU, EDEM3 / Fold change vs veh, EDEM3 / RFU, TMEM33 / Fold change vs veh, TMEM33 / RFU, WDR75 / Fold change vs veh, WDR75 / RFU, AHCTF1 / Fold change vs veh, AHCTF1 / RFU, TFRC / Fold change vs veh, TFRC / RFU, ZDHHC17 / Fold change vs veh, ZDHHC17 / RFU, NOM1 / Fold change vs veh, NOM1 / RFU, ARL8B / Fold change vs veh, ARL8B / RFU, ZBTB11 / Fold change vs veh, ZBTB11 / RFU, TAMM41 / Fold change vs veh, TAMM41 / RFU, KIAA1704 /// LOC100996395 / Fold change vs veh, KIAA1704 /// LOC100996395 / RFU, ING1 / Fold change vs veh, ING1 / RFU, TRMT61B / Fold change vs veh, TRMT61B / RFU, FUBP3 / Fold change vs veh, FUBP3 / RFU, TP53 / Fold change vs veh, TP53 / RFU, TNKS2 / Fold change vs veh, TNKS2 / RFU, ZFP14 / Fold change vs veh, ZFP14 / RFU, ACTR2 / Fold change vs veh, ACTR2 / RFU, PPP3R1 / Fold change vs veh, PPP3R1 / RFU, PIK3R1 / Fold change vs veh, PIK3R1 / RFU, HNRNPA1 / Fold change vs veh, HNRNPA1 / RFU, RNF170 / Fold change vs veh, RNF170 / RFU, ZNF28 / Fold change vs veh, ZNF28 / RFU, RNGTT / Fold change vs veh, RNGTT / RFU, OGT / Fold change vs veh, OGT / RFU, BRD1 / Fold change vs veh, BRD1 / RFU, MARS / Fold change vs veh, MARS / RFU, ZNF655 / Fold change vs veh, ZNF655 / RFU, FAHD1 / Fold change vs veh, FAHD1 / RFU, BDP1 / Fold change vs veh, BDP1 / RFU, LRRCC1 / Fold change vs veh, LRRCC1 / RFU, ARID1A / Fold change vs veh, ARID1A / RFU, ZNF146 / Fold change vs veh, ZNF146 / RFU, ZNF330 / Fold change vs veh, ZNF330 / RFU, GPN3 / Fold change vs veh, GPN3 / RFU, C9orf123 / Fold change vs veh, C9orf123 / RFU, N4BP2L2 / Fold change vs veh, N4BP2L2 / RFU, ARFIP1 / Fold change vs veh, ARFIP1 / RFU, FAM179B / Fold change vs veh, FAM179B / RFU, BCL10 / Fold change vs veh, BCL10 / RFU, UHRF1BP1L / Fold change vs veh, UHRF1BP1L / RFU, BET1 / Fold change vs veh, BET1 / RFU, CNOT2 / Fold change vs veh, CNOT2 / RFU, ZNF268 / Fold change vs veh, ZNF268 / Fold change vs veh, ZNF507 / RFU, DGCR2 / Fold change vs veh, DGCR2 / RFU, WDSUB1 / Fold change vs veh, WDSUB1 / Fold change vs veh, HSP90B1 /// MIR3652 / RFU, ADSS / Fold change vs veh, ADSS / RFU, GK / Fold change vs veh, GK / RFU, ZNF148 / Fold change vs veh, ZNF148 / RFU, TAF9 / Fold change vs veh, TAF9 / RFU, SLC1A5 / Fold change vs veh, SLC1A5 / RFU, SLMO2 / Fold change vs veh, SLMO2 / RFU, ABCC4 / Fold change vs veh, ABCC4 / RFU, LOC101060439 /// RAP1B / Fold change vs veh, LOC101060439 /// RAP1B / RFU, RFX7 / Fold change vs veh, RFX7 / RFU, GTPBP10 / Fold change vs veh, GTPBP10 / RFU, CNEP1R1 / Fold change vs veh, CNEP1R1 / RFU, BIVM-ERCC5 /// ERCC5 / Fold change vs veh, BIVM-ERCC5 /// ERCC5 / RFU, ILF3 / Fold change vs veh, ILF3 / RFU 11762660_at / Fold change /veh 11762660_at / RFU VCAN (11757783_s_at) / Fold change /veh VCAN (11757783_s_at) / RFU DDX43 (11728927_at) / Fold change /veh DDX43 (11728927_at) / RFU KRT8 (11758188_x_at) / Fold change /veh KRT8 (11758188_x_at) / RFU NKD1 (11759106_at) / Fold change /veh NKD1 (11759106_at) / RFU SRD5A1 (11742802_a_at) / Fold change /veh SRD5A1 (11742802_a_at) / RFU TPSAB1 /// TPSB2 (11721975_s_at) / Fold change /veh TPSAB1 /// TPSB2 (11721975_s_at) / RFU GSTM3 (11746129_a_at) / Fold change /veh GSTM3 (11746129_a_at) / RFU IL23R (11737362_x_at) / Fold change /veh IL23R (11737362_x_at) / RFU TMEM51 (11727254_a_at) / Fold change /veh TMEM51 (11727254_a_at) / RFU PIWIL2 (11732686_x_at) / Fold change /veh PIWIL2 (11732686_x_at) / RFU ORM1 (11744905_x_at) / Fold change /veh ORM1 (11744905_x_at) / RFU CCDC152 (11743942_at) / Fold change /veh CCDC152 (11743942_at) / RFU ECM1 (11717891_a_at) / Fold change /veh ECM1 (11717891_a_at) / RFU IL23R (11748794_a_at) / Fold change /veh IL23R (11748794_a_at) / RFU TNFAIP8L3 (11732012_x_at) / Fold change /veh TNFAIP8L3 (11732012_x_at) / RFU MBOAT4 (11741988_at) / Fold change /veh MBOAT4 (11741988_at) / RFU 11764193_at / Fold change /veh 11764193_at / RFU TMEM53 (11763286_at) / Fold change /veh TMEM53 (11763286_at) / RFU MAGEB2 (11727129_at) / Fold change /veh MAGEB2 (11727129_at) / RFU TMEM200A (11744735_a_at) / Fold change /veh TMEM200A (11744735_a_at) / RFU CCDC152 (11751479_a_at) / Fold change /veh CCDC152 (11751479_a_at) / RFU FAM211A (11726209_a_at) / Fold change /veh FAM211A (11726209_a_at) / RFU RGS16 (11746705_a_at) / Fold change /veh RGS16 (11746705_a_at) / RFU VCAN (11755009_s_at) / Fold change /veh VCAN (11755009_s_at) / RFU RHOB (11743442_s_at) / Fold change /veh RHOB (11743442_s_at) / RFU RGS16 (11720943_a_at) / Fold change /veh RGS16 (11720943_a_at) / RFU RGS16 (11720944_at) / Fold change /veh RGS16 (11720944_at) / RFU, VPS4B / Fold change vs veh, VPS4B / RFU, CREB1 / Fold change vs veh, CREB1 / RFU, DNAJC13 / Fold change vs veh, DNAJC13 / RFU, GNAQ / Fold change vs veh, GNAQ / RFU, CDK5R1 / Fold change vs veh, CDK5R1 / RFU, ZRANB3 / Fold change vs veh, ZRANB3 / RFU, CUL4A / Fold change vs veh, CUL4A / RFU, CCNY / Fold change vs veh, CCNY / RFU, UFL1 / Fold change vs veh, UFL1 / RFU, COG3 / Fold change vs veh, COG3 / RFU, DIAPH2 / Fold change vs veh, DIAPH2 / RFU, SKA2 / Fold change vs veh, SKA2 / RFU, AFF3 / Fold change vs veh, AFF3 / RFU, LMF1 / Fold change vs veh, LMF1 / RFU, IPO11 / Fold change vs veh, IPO11 / RFU, DFFB / Fold change vs veh, DFFB / RFU, FOXP1 / Fold change vs veh, FOXP1 / RFU, CARD8 / Fold change vs veh, CARD8 / RFU, STRN3 / Fold change vs veh, STRN3 / RFU, ADK / Fold change vs veh, ADK / RFU, RASSF2 / Fold change vs veh, RASSF2 / RFU, WIPF1 / Fold change vs veh, WIPF1 / RFU, LARP1B / Fold change vs veh, LARP1B / RFU, RASA1 / Fold change vs veh, RASA1 / RFU, RB1 / Fold change vs veh, RB1 / RFU, PPFIA1 / Fold change vs veh, PPFIA1 / RFU, MAT2A / Fold change vs veh, MAT2A / RFU, CCT5 / Fold change vs veh, CCT5 / RFU, WDR92 / Fold change vs veh, WDR92 / RFU, CUX1 / Fold change vs veh, CUX1 / RFU, TTC7A / Fold change vs veh, TTC7A / RFU, TMEM135 / Fold change vs veh, TMEM135 / RFU, DEPTOR / Fold change vs veh, DEPTOR / RFU, CPM / Fold change vs veh, CPM / RFU, DNAJB6 / Fold change vs veh, DNAJB6 / RFU, CACNA2D3 / Fold change vs veh, CACNA2D3 / RFU, DTX4 / Fold change vs veh, DTX4 / RFU, TFCP2 / Fold change vs veh, TFCP2 / RFU, GMCL1 /// GMCL1P1 / Fold change vs veh, GMCL1 /// GMCL1P1 / RFU, AEBP2 / Fold change vs veh, AEBP2 / RFU, SNHG1 /// SNORD22 /// SNORD25 /// SNORD26 /// SNORD27 /// SNORD28 /// SNORD29 /// SNORD31 / Fold change vs veh, SNHG1 /// SNORD22 /// SNORD25 /// SNORD26 /// SNORD27 /// SNORD28 /// SNORD29 /// SNORD31 / Fold change (Aza/veh), C12orf56 (ProbeSet 11735607_a_at) / Fold change (ACY-1035/veh), C12orf56 (ProbeSet 11735607_a_at) / Fold change (Aza/veh), FGFR1OP (ProbeSet 11751329_s_at) / Fold change (ACY-1035/veh), FGFR1OP (ProbeSet 11751329_s_at) / Fold change (Aza/veh), VPS36 (ProbeSet 11739960_a_at) / Fold change (ACY-1035/veh), VPS36 (ProbeSet 11739960_a_at) / RFU SYPL1 (11715823_x_at) / Fold change /veh SYPL1 (11715823_x_at) / RFU IGFBP7 (11715501_s_at) / Fold change /veh IGFBP7 (11715501_s_at) / RFU REEP3 (11722064_at) / Fold change /veh REEP3 (11722064_at) / RFU IGLL1 (11728026_x_at) / Fold change /veh IGLL1 (11728026_x_at): dose or concentration left out as unconfirmed
Conditions: MV-4-11 cells, 48 hours

## Nc1ncn([C@@H]2O[C@H](CO)[C@@H](O)[C@H]2O)c(=O)n1 [azacitidine]
  Fold change /veh C5orf56 (11738089_at): 1.15
